Source: the supplement of paper PMC8617591

Experiments:
[1] = system: Mycobacterium tuberculosis Erdman (autoluminescent); assay: Einf, fitted maximum growth inhibition of three-drug combination (fraction); higher = stronger maximal inhibition
Method: (§1)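 DiaMOND equipotent three-drug combination dose responses (10 doses, 1.5- or 2-fold spacing, centred on IC90) against autoluminescent M. tuberculosis Erdman in 8 in vitro models. Read-out is OD600, or luminescence for the intracellular and dormancy models, normalised to untreated wells. Hill-fit Einf, AUC25 and GRinf are potency metrics; FIC50 and FIC90 are total Loewe fractional inhibitory concentrations as log2 (negative = synergy).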

[2] = system: Mycobacterium tuberculosis Erdman (autoluminescent); assay: AUC25, normalised area under dose response up to IC25 (three-drug combination) (fraction (0-1)); higher = more potent at low dose
Method: as §1

[3] = system: Mycobacterium tuberculosis Erdman (autoluminescent); assay: total FIC90 (Loewe) at 90% inhibition, three-drug combination (log2); higher = more antagonistic
Method: as §1

[4] = system: Mycobacterium tuberculosis Erdman (autoluminescent); assay: GRinf, maximum normalised growth rate inhibition (three-drug combination) (unitless (-1 to 1)); higher = less effect (negative = killing)
Method: as §1

[5] = system: Mycobacterium tuberculosis Erdman (autoluminescent); assay: total FIC50 (Loewe) at 50% inhibition, three-drug combination (log2); higher = more antagonistic
Method: as §1

CC(C)/N=c1\cc2n(-c3ccc(Cl)cc3)c3ccccc3nc-2cc1Nc1ccc(Cl)cc1 [clofazimine] + CO[C@H]1/C=C/O[C@@]2(C)Oc3c(C)c(O)c4c(O)c(c(/C=N/N5CCN(C6CCCC6)CC5)c(O)c4c3C2=O)NC(=O)/C(C)=C\C=C\[C@H](C)[C@H](O)[C@@H](C)[C@@H](O)[C@@H](C)[C@H](OC(C)=O)[C@@H]1C [rifapentine] + CO[C@H]1/C=C/O[C@@]2(C)Oc3c(C)c(O)c4c(O)c(c(/C=N/N5CCN(C)CC5)c(O)c4c3C2=O)NC(=O)/C(C)=C\C=C\[C@H](C)[C@H](O)[C@@H](C)[C@@H](O)[C@@H](C)[C@H](OC(C)=O)[C@@H]1C [rifampicin]
Conditions	AUC25, [2]	Einf, [1]	GRinf, [4]	total FIC50, [5]	total FIC90, [3]
in vitro model: acidic pH 5.7, time point: constant (~7 days, model-specific)	0.0846	0.855	-0.0603	0.102	–
in vitro model: acidic pH 5.7, time point: terminal (~4-5 doublings, model-specific)	0.076	0.975	-0.1	0.133	-0.159
in vitro model: intracellular J774, time point: constant = terminal	–	0.956	-0.293	–	0.0463

Conditions	AUC25, [2]	Einf, [1]	GRinf, [4]	total FIC50, [5]	total FIC90, [3]
in vitro model: butyrate, time point: constant (~7 days, model-specific)	0.115	0.935	-0.0887	0.282	0.128
in vitro model: butyrate, time point: terminal (~4-5 doublings, model-specific)	0.0924	0.967	-0.0699	0.19	0.285
in vitro model: cholesterol 0.05 mM, time point: constant (~7 days, model-specific)	0.13	0.619	-0.094	0.554	–
in vitro model: cholesterol 0.05 mM, time point: terminal (~4-5 doublings, model-specific)	0.098	0.865	0.0942	1.05	0.206
in vitro model: cholesterol-high 0.2 mM, time point: constant (~7 days, model-specific)	0.105	0.887	-0.333	0.692	–
in vitro model: cholesterol-high 0.2 mM, time point: terminal (~4-5 doublings, model-specific)	0.0914	0.999	-0.983	0.952	0.73
in vitro model: dormancy (butyrate + nitrate, low O2), time point: constant (~7 days, model-specific)	0.0771	0.965	0.0628	0.158	-0.937
in vitro model: dormancy (butyrate + nitrate, low O2), time point: terminal (~4-5 doublings, model-specific)	0.067	0.994	-0.464	-0.183	0.154
in vitro model: standard 7H9 glycerol, time point: constant = terminal	0.0923	0.907	0.0923	0.00896	1.54
in vitro model: valerate, time point: constant (~7 days, model-specific)	0.0792	0.861	0.00522	0.944	–
in vitro model: valerate, time point: terminal (~4-5 doublings, model-specific)	0.0548	0.925	0.043	0.559	0.577

CC[C@@H](CO)NCCN[C@@H](CC)CO [ethambutol] + NNC(=O)c1ccncc1 [isoniazid] + CC(=O)NC[C@H]1CN(c2ccc(N3CCOCC3)c(F)c2)C(=O)O1 [linezolid]
Conditions	AUC25, [2]	Einf, [1]	GRinf, [4]	total FIC50, [5]	total FIC90, [3]
in vitro model: acidic pH 5.7, time point: constant (~7 days, model-specific)	0.108	0.831	-0.311	0.672	–
in vitro model: acidic pH 5.7, time point: terminal (~4-5 doublings, model-specific)	0.0511	0.939	-0.218	1.64	0.241
in vitro model: intracellular J774, time point: constant = terminal	–	0.958	-0.189	–	-0.0766

Conditions	AUC25, [2]	Einf, [1]	GRinf, [4]	total FIC50, [5]	total FIC90, [3]
in vitro model: butyrate, time point: constant (~7 days, model-specific)	0.101	0.9	0.0696	0.578	–
in vitro model: butyrate, time point: terminal (~4-5 doublings, model-specific)	0.0839	0.943	0.0902	0.593	1.01
in vitro model: cholesterol 0.05 mM, time point: constant (~7 days, model-specific)	0.148	0.693	-0.305	-0.315	–
in vitro model: cholesterol 0.05 mM, time point: terminal (~4-5 doublings, model-specific)	0.166	0.918	-0.286	-1.8	–
in vitro model: cholesterol-high 0.2 mM, time point: constant (~7 days, model-specific)	0.102	0.925	-0.717	0.686	–
in vitro model: cholesterol-high 0.2 mM, time point: terminal (~4-5 doublings, model-specific)	0.121	1	-0.966	0.382	1.42
in vitro model: dormancy (butyrate + nitrate, low O2), time point: constant (~7 days, model-specific)	0.117	0.801	0.434	0.669	–
in vitro model: dormancy (butyrate + nitrate, low O2), time point: terminal (~4-5 doublings, model-specific)	0.1	0.971	-0.188	0.326	0.438
in vitro model: standard 7H9 glycerol, time point: constant = terminal	0.0661	0.911	0.099	0.88	–
in vitro model: valerate, time point: constant (~7 days, model-specific)	0.127	0.91	-0.184	0.573	–
in vitro model: valerate, time point: terminal (~4-5 doublings, model-specific)	0.0732	0.944	-0.0217	0.769	0.881

CC(C)/N=c1\cc2n(-c3ccc(Cl)cc3)c3ccccc3nc-2cc1Nc1ccc(Cl)cc1 [clofazimine] + NNC(=O)c1ccncc1 [isoniazid] + CO[C@H]1/C=C/O[C@@]2(C)Oc3c(C)c(O)c4c(O)c(c(/C=N/N5CCN(C)CC5)c(O)c4c3C2=O)NC(=O)/C(C)=C\C=C\[C@H](C)[C@H](O)[C@@H](C)[C@@H](O)[C@@H](C)[C@H](OC(C)=O)[C@@H]1C [rifampicin]
Conditions	AUC25, [2]	Einf, [1]	GRinf, [4]	total FIC50, [5]	total FIC90, [3]
in vitro model: acidic pH 5.7, time point: constant (~7 days, model-specific)	0.0827	0.859	-0.00905	0.524	–
in vitro model: acidic pH 5.7, time point: terminal (~4-5 doublings, model-specific)	0.0711	0.977	-0.102	0.542	0.223
in vitro model: intracellular J774, time point: constant = terminal	–	0.983	-0.28	–	0.112

Conditions	AUC25, [2]	Einf, [1]	GRinf, [4]	total FIC50, [5]	total FIC90, [3]
in vitro model: butyrate, time point: constant (~7 days, model-specific)	0.107	0.958	-0.146	0.388	0.605
in vitro model: butyrate, time point: terminal (~4-5 doublings, model-specific)	0.082	0.978	-0.104	0.318	0.248
in vitro model: cholesterol 0.05 mM, time point: constant (~7 days, model-specific)	0.102	0.662	0.064	0.74	–
in vitro model: cholesterol 0.05 mM, time point: terminal (~4-5 doublings, model-specific)	0.0787	0.896	0.0504	1.25	-0.29
in vitro model: cholesterol-high 0.2 mM, time point: constant (~7 days, model-specific)	0.0653	0.891	-0.205	0.286	–
in vitro model: cholesterol-high 0.2 mM, time point: terminal (~4-5 doublings, model-specific)	0.0563	0.996	-0.68	0.929	0.197
in vitro model: dormancy (butyrate + nitrate, low O2), time point: constant (~7 days, model-specific)	0.0885	0.876	0.253	-0.0155	-0.596
in vitro model: dormancy (butyrate + nitrate, low O2), time point: terminal (~4-5 doublings, model-specific)	0.0839	0.988	-0.19	-0.403	0.28
in vitro model: standard 7H9 glycerol, time point: constant = terminal	0.112	0.945	-0.018	-0.19	0.0305
in vitro model: valerate, time point: constant (~7 days, model-specific)	0.112	0.866	-0.116	0.565	–
in vitro model: valerate, time point: terminal (~4-5 doublings, model-specific)	0.0604	0.918	0.0831	0.286	0.147
